From ChEMBL document CHEMBL1134478, “Recent developments in the biology and medicinal chemistry of potassium channel modulators: update from a decade of progress” (J Med Chem, 2001)
Values belong to the compound of their own block, whether it stands above or below them. Active and inactive are the calls of the source. No cut-off for these calls is given here.

Legend:
Cavia porcellus [1] = organism: Cavia porcellus; test: The inhibitory concentration for 50% was measured on guinea pig bladder strips; format: functional
[2] = molecular target: T1, Potassium voltage-gated channel subfamily A member 5 (Homo sapiens, UniProt P22460); test: The inhibitory concentration for 50% was measured on cation flux
T1 sequence (P22460 whole entry): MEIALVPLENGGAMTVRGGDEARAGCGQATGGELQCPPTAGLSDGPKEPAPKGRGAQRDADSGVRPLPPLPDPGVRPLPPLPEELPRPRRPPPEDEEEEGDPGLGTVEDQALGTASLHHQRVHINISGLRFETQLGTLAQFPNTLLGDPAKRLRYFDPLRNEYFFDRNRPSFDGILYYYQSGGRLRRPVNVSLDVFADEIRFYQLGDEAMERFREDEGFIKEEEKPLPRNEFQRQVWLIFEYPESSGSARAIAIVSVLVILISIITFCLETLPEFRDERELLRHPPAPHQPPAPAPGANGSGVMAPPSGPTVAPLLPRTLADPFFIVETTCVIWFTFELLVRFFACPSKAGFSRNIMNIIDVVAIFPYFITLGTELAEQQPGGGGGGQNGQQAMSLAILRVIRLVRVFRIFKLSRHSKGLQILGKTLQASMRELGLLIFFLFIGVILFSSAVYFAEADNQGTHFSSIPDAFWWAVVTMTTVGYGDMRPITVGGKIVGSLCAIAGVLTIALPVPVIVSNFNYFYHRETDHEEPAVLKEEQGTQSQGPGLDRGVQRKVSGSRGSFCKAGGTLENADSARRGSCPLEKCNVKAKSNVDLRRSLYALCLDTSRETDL

[3] = molecular target: T1, Potassium voltage-gated channel subfamily A member 5; test: (§1) Inhibition of voltage-gated potassium channel subunit Kv1.5
[4] = molecular target: T1, Potassium voltage-gated channel subfamily A member 5; test: as §1; format: functional
Rattus norvegicus [5] = organism: Rattus norvegicus; test: The effective dose for relaxation was measured on rat aorta rings; format: functional; settings: read-out: ED50 (the source's name)
Rattus norvegicus [6] = organism: Rattus norvegicus; test: The percentage of residual insulin release at 50 uM of compound in the presence of glucose on rat pancreatic beta cells; format: functional
Rattus norvegicus [7] = organism: Rattus norvegicus; test: The inhibitory concentration for 50% was measured on rat aorta strips; format: functional
[8] = molecular target: T2, Sulfonylurea receptor 2, Kir6.2 (Homo sapiens, UniProt O60706+Q14654); test: (§2) Inhibition of SUR2B/Kir6.2; format: protein-complex assay, Rattus norvegicus
T2 sequence (Q14654 whole entry): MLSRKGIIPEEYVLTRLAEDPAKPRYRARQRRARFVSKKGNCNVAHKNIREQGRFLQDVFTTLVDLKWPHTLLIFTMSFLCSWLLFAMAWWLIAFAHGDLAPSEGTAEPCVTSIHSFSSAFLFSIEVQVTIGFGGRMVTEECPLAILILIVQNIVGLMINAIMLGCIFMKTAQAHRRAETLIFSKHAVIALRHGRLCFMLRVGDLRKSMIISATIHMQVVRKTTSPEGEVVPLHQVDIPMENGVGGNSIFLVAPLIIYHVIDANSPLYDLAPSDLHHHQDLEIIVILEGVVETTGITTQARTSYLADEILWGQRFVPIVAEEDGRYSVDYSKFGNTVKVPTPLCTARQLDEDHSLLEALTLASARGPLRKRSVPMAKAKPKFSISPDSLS
T2 sequence (O60706 whole entry): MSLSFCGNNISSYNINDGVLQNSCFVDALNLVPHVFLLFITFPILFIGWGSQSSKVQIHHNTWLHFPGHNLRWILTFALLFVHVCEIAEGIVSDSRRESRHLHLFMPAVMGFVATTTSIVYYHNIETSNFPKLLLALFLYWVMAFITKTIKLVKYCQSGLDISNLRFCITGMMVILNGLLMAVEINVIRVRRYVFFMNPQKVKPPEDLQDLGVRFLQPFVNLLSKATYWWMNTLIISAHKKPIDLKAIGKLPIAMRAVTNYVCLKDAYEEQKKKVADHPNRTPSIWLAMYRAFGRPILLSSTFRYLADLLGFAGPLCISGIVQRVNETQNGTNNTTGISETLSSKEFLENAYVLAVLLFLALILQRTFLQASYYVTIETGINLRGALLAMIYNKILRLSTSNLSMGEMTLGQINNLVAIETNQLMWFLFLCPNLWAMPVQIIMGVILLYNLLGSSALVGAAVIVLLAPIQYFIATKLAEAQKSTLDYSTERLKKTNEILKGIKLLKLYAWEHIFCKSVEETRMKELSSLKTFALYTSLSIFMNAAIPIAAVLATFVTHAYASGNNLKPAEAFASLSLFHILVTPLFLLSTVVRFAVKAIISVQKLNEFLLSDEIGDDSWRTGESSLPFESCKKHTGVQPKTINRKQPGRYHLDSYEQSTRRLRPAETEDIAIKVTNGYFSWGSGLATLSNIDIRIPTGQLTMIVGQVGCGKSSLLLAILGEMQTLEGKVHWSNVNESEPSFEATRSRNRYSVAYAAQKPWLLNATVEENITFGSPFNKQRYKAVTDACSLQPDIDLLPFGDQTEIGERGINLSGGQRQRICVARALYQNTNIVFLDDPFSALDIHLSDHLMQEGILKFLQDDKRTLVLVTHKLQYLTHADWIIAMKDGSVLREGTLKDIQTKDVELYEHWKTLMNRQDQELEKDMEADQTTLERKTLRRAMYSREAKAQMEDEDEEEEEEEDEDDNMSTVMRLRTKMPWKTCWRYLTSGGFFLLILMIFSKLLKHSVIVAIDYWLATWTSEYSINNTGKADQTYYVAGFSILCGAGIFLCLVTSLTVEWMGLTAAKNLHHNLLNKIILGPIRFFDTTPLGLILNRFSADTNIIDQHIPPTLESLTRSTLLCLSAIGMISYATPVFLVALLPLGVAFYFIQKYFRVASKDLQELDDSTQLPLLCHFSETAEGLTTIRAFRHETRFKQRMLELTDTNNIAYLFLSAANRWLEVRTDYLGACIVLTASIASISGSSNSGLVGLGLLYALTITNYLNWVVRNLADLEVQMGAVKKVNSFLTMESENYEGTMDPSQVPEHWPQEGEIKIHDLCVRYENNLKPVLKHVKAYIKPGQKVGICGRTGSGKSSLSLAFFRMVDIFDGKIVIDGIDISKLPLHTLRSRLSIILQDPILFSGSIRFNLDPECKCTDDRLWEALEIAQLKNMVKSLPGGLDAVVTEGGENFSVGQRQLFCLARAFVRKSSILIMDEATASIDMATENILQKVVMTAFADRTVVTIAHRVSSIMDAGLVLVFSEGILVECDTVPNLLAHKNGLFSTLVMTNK

Rattus norvegicus [9] = organism: Rattus norvegicus; test: The effective concentration was measured on rat aorta strips; format: functional
[10] = molecular target: T2, Sulfonylurea receptor 2, Kir6.2; test: as §2; format: protein-complex assay
Cavia porcellus [11] = organism: Cavia porcellus; test: The effective dose to inhibit 50% was measured on guinea pig; format: functional
Cavia porcellus [12] = organism: Cavia porcellus; test: The effective dose to inhibit 20% was measured on guinea pig; format: functional
[13] = molecular target: Voltage-gated potassium channel, IKs; KCNQ1(Kv7.1)/KCNE1(MinK) (Homo sapiens, UniProt P15382+P51787); test: Inhibition of Iks current KvLQT1 potassium channel; format: protein-complex assay
[14] = molecular target: Gardos channel, KCNN4/IK1 (Homo sapiens); test: Selectivity for gardos channel; (Gardos channel vs 2000 nM for the cardiac IKs channel).)
Rattus norvegicus [15] = organism: Rattus norvegicus; test: The effective concentration (EC25) was measured for anti-ischemic activity on perfused rat hearts; format: functional
Rattus norvegicus [16] = organism: Rattus norvegicus; test: The inhibitory concentration (IC50) for vasorelaxation on rat aorta; format: functional
[17] = EC25 and IC50 Ratio of the compound; format: functional; set-up: reference not given here
[18] = In vitro reduction of glutamate release in hippocampal slices; format: functional, tissue-based; settings: Rattus norvegicus, Hippocampus
[19] = molecular target: T3, Small conductance calcium-activated potassium channel protein 1 (Homo sapiens, UniProt Q92952); test: Inhibition of hSK1 calcium activated potassium channel (SKCa channel); Range is 1-2
T3 sequence (Q92952 whole entry): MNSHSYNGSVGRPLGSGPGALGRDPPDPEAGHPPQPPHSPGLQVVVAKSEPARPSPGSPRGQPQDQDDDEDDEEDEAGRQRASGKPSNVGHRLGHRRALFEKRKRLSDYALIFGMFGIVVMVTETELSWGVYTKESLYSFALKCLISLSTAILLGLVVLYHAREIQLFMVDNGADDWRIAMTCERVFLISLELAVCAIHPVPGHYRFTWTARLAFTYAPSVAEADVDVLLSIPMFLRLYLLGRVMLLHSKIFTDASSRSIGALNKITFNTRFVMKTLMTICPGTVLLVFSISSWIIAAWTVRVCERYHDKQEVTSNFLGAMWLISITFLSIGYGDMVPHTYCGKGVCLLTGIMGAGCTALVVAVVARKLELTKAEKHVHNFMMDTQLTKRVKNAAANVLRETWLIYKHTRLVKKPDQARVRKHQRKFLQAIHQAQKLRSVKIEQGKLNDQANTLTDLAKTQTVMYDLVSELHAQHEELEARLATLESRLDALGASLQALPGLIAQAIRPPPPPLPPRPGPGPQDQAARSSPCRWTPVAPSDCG

[20] = Inhibition of Kir6.1/SUR1 potassium channel K-ATP; set-up: species or system Homo sapiens
Cavia porcellus [21] = organism: Cavia porcellus; test: The inhibitory concentration was measured on guinea pig cardiomyocytes; format: functional
[22] = molecular target: T2, Sulfonylurea receptor 2, Kir6.2; test: Inhibition of human SUR2A/Kir6.2 expressed in Xenopus oocytes; format: cell-based, Oocyte
Rattus norvegicus [23] = organism: Rattus norvegicus; test: The inhibitory concentration was measured on the rat insulinoma cell line RIN-m5F; format: functional
[24] = Inhibition of glyburide binding to K-ATP potassium channel
[25] = Inhibition of glyburide binding to K-ATP potassium channel; Inactive
Rattus norvegicus [26] = organism: Rattus norvegicus; test: Antagonistic activity in the rat thoracic aorta; format: functional
Cavia porcellus [27] = organism: Cavia porcellus; test: Relaxation of guinea pig bladder strips when contracted with 20 mM KCl; format: functional
Cavia porcellus [28] = organism: Cavia porcellus; test: The inhibitory concentration of compound on guinea pig bladder strips; format: functional
Cavia porcellus [29] = organism: Cavia porcellus; test: The inhibitory concentration of compound on guinea pig portal vein; format: functional
Rattus norvegicus [30] = organism: Rattus norvegicus; test: In vitro inhibitory concentration for 50% vasorelaxant effect was measured on rat aorta strips; format: functional
[31] = molecular target: Sulfonylurea receptor 1, Kir6.2 (Homo sapiens, UniProt Q09428+Q14654); test: Inhibition of human SUR1/Kir6.2 expressed in CHO cells; format: cell-based
Sequence of Sulfonylurea receptor 1, Kir6.2 (Q14654 whole entry): as the sequence (Q14654 whole entry) above
Sequence of Sulfonylurea receptor 1, Kir6.2 (Q09428 whole entry): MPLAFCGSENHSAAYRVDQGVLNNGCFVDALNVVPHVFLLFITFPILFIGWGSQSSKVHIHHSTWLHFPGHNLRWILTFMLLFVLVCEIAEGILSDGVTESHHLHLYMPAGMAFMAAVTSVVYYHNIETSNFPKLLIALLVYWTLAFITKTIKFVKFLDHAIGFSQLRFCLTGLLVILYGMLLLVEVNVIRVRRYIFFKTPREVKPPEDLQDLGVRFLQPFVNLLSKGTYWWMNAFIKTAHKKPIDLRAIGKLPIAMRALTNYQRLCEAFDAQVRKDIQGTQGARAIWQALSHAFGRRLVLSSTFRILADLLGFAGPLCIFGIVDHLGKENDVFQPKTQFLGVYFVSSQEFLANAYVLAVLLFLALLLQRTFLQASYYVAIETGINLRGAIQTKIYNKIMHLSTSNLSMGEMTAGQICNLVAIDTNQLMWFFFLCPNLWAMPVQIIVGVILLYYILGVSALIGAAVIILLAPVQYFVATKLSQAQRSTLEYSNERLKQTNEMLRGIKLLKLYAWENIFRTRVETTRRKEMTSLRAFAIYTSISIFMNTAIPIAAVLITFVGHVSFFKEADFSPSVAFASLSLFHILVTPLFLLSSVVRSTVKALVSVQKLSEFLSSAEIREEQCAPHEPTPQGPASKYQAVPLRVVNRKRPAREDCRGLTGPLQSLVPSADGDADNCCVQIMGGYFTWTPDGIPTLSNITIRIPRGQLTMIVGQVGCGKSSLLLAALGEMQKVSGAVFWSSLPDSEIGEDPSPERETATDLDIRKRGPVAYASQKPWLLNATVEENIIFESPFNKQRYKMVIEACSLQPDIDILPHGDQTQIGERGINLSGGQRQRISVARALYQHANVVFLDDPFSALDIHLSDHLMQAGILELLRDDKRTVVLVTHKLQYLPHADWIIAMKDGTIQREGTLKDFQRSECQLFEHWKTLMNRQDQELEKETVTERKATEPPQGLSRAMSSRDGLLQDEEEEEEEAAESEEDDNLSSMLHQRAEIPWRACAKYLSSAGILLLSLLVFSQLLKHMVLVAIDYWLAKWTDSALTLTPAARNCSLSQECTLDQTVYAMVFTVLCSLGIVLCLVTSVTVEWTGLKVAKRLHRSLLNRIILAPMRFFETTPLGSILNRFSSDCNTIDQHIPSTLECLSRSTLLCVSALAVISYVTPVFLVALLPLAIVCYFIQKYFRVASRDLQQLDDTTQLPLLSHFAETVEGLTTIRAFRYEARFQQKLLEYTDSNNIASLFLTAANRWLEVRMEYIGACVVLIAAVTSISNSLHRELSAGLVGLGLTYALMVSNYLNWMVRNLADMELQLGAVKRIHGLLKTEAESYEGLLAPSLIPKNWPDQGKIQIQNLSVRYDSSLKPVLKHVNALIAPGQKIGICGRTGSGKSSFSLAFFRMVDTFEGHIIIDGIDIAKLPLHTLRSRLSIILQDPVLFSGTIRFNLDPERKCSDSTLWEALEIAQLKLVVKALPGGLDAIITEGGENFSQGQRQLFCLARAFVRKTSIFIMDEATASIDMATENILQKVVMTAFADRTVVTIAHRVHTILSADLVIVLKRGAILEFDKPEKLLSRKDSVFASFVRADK

[32] = The inhibitory concentration for 50% was measured on the rat insulinoma cell line RIN-m5F; format: functional
Cavia porcellus [33] = organism: Cavia porcellus; test: The inhibitory concentration for 50% was measured on guinea pig cardiomyocytes; format: functional
[34] = molecular target: T3, Small conductance calcium-activated potassium channel protein 1; test: Inhibition of hSK1 calcium activated potassium channel (SKCa channel)
Rattus norvegicus [35] = organism: Rattus norvegicus; test: Antagonistic activity (pKb) was measured in the rat thoracic aorta; format: functional
[36] = Inhibition of currents and prolonged action potential duration in human atrial myocytes; format: functional, Cardiac atrium

Structure (SMILES): C[C@](O)(C(=O)Nc1cccc2c1C(=O)c1sccc1CS2(=O)=O)C(F)(F)F
IC50 (Cavia porcellus [1]): 2.5 µM

Structure (SMILES): O=C1NCCN1CCN1CCC(c2cn(-c3ccc(F)cc3)c3ccc(Cl)cc23)CC1 [SERTINDOLE]
IC50 [4]: 2 µM

Structure (SMILES): CC(NC1=NS(=O)(=O)c2cccnc2N1)C(C)(C)C (stereo not drawn)
EC50 (Rattus norvegicus [5]): 7.5 µM | Insulin release (Rattus norvegicus [6]): 98.9%

Structure (SMILES): Cc1cc(-c2ccc3c(c2)[C@@H](NC(=O)c2cccnc2)[C@H](O)C(C)(C)O3)ccn1
ED50 (Cavia porcellus [11]): 0.08 µg/kg | ED20 (Cavia porcellus [12]): 100 µg/kg

Structure (SMILES): CC1(C)Oc2ccc(C#N)cc2[C@H](N2CCCC2=O)[C@H]1O [(-)-CROMAKALIM]
EC25 (Rattus norvegicus [15]): 8.9 µM | IC50 (Rattus norvegicus [16]): 0.032 µM | Ratio [17]: 278

Structure (SMILES): COc1ccc(Cl)cc1[C@]1(F)C(=O)Nc2cc(C(F)(F)F)ccc21 [FLINDOKALNER]
IC50 [18]: 0.352 µM

Structure (SMILES): CC1(C)Oc2ccc(C#N)cc2[C@@H](/N=C(\NC#N)Nc2ccc(Cl)cc2)[C@@H]1O
EC25 (Rattus norvegicus [15]): 2.5 µM | Ratio [17]: 1.4

Structure (SMILES): c1ccc2c(c1)c1cc[n+]2CCCCC[n+]2ccc(c3ccccc32)NCCCCCN1
IC50 [19]: 0.001 µM

Structure (SMILES): C1CCC(/N=C(\NC23CC4CC(CC(C4)C2)C3)N2CCOCC2)CC1
IC50 [20]: 32 µM

Structure (SMILES): CC(NC1=NS(=O)(=O)c2cnccc2N1)C(C)(C)C (stereo not drawn)
EC50 (Rattus norvegicus [5]): 154 µM | Insulin release (Rattus norvegicus [6]): 7.1%

Structure (SMILES): CC1=Nc2ccc(Cl)cc2S(=O)(=O)N1 [DIAZOXIDE]
EC50 (Rattus norvegicus [5]): 19.3 µM | Insulin release (Rattus norvegicus [6]): 28.8%

Structure (SMILES): COc1ccc(Cl)cc1C(=O)NCCc1ccc(S(=O)(=O)NC(=O)NC2CCCCC2)cc1 [GLYBURIDE]
IC50 (Cavia porcellus [21]): 0.008 µM | IC50 [22]: 0.22 µM | IC50 (Rattus norvegicus [23]): 0.0016 µM

Structure (SMILES): CC(C)CN(CC(C)C)S(=O)(=O)c1ccc2c(c1)[C@@H](/N=C(\NC#N)Nc1ccc(Cl)cc1)[C@H](O)C(C)(C)O2
EC25 (Rattus norvegicus [15]): 0.04 µM | Ratio [17]: < 0.004

Structure (SMILES): C=CCN(C1=NCCN1)c1c(Cl)cccc1Cl [ALINIDINE]
pKb (Rattus norvegicus [26]): 5.5

Structure (SMILES): N#Cc1cccc(C2C3=C(CCCC3=O)NC3=C2C(=O)CCC3)c1
IC50 (Cavia porcellus [28]): 4.2 µM | IC50 (Cavia porcellus [29]): 0.75 µM

Structure (SMILES): CC(C)(C)O/N=C(\c1cc(Br)c(F)cc1O)c1c(O)ccc[n+]1[O-]
IC50 (Rattus norvegicus [30]): 0.28 µM

Structure (SMILES): CNC(=S)NS(=O)(=O)c1cc(CCNC(=O)c2cc(Cl)ccc2OC)ccc1OC [CLAMIKALANT]
IC50 [31]: 8.2 µM | IC50 [22]: 4.3 µM | IC50 [32]: 7.5 µM | IC50 (Cavia porcellus [33]): 0.8 µM

Structure (SMILES): c1cc2cc(c1)C[n+]1ccc(c3ccccc31)NCc1ccc(cc1)CNc1cc[n+](c3ccccc13)C2
IC50 [34]: 0.003 µM

Structure (SMILES): CC(NC1=NS(=O)(=O)c2cc(Cl)cnc2N1)C(C)(C)C (stereo not drawn)
EC50 (Rattus norvegicus [5]): 2.3 µM | Insulin release (Rattus norvegicus [6]): 41.5%

Structure (SMILES): Fc1ccc(CN(C2=NCCN2)c2c(Cl)cccc2Cl)cc1
pKb (Rattus norvegicus [35]): 7.1

Further lines, with some results ahead:

IC50 [2]: ~2.9 µM | IC50 [3]: ~0.05 µM
Structure (SMILES): CCCCc1ccc(S(=O)(=O)N[C@@H]2c3cc(NC(=O)c4cccc(OC)c4)ccc3CC[C@H]2O)cc1

IC50 (Rattus norvegicus [7]): 12 µM | Kd [8]: 5.2 µM | EC50 (Rattus norvegicus [9]): 5.3 µM | Kd [10]: 8.5 µM
Structure (SMILES): CNC(=S)C1(C(=O)c2ccc(-n3ccnc3)cc2)CCC1

IC50 [13]: 2 µM | IC50 [14]: 0.009 µM
Structure (SMILES): NC(=O)C(c1ccccc1)(c1ccc(F)cc1)c1ccccc1F (stereo not drawn)

IC50 [24]: 0.018 µM
Structure (SMILES): N#C/N=C(\Nc1cccnc1)NC1(c2cccc(Cl)c2)CCC1

NA [25]: inactive
Structure (SMILES): C[C@@H](N/C(=N/C#N)Nc1cccnc1)c1ccccc1

IC50 (Cavia porcellus [27]): 0.54 µM
Structure (SMILES): Cc1c(-c2ccccc2F)[nH]c(N)c1C#N

IC50 (Rattus norvegicus [16]): > 30 µM
Structure (SMILES): CC1(C)Oc2ccc(C#N)cc2[C@H](N(Cc2ncc[nH]2)c2ccc(Cl)cc2)[C@H]1O [BMS-191095]
EC25 (Rattus norvegicus [15]): 1.4 µM | Ratio [17]: < 0.05

NA [25]: inactive
Structure (SMILES): CC[C@@H](N/C(=N/C#N)Nc1cccnc1)c1ccccc1

IC50 (Cavia porcellus [1]): 2.1 µM
Structure (SMILES): CC(O)(C(=O)Nc1cccc2c1C(=O)c1sccc1CO2)C(F)(F)F (stereo not drawn)

IC50 [3]: 0.1 µM
Structure (SMILES): CCc1ccc(S(=O)(=O)N[C@@H]2c3cc(NC(=O)c4cccc(OC)c4)ccc3C[C@H]2O)cc1
Inhibition [36]: >50%
